Entries after “also recorded” stand apart in the source; their conditions may differ.
Experiments:
[1] = test system: primary neuronal cultures; test: DHE oxidation (superoxide and/or hydrogen peroxide production) in primary neuronal cultures exposed to ketamine; type: cell-based, mouse
NADPH oxidase (Nox) = test: Nox activity in synaptosomes by NADPH-dependent oxygen consumption (oximetry); type: biochemical, mouse; conditions: ketamine 30 mg/kg in vivo on two consecutive days
Protocol: Synaptosomal preparations. […] Mice were euthanized by exposure to a lethal dose of inhaled halothane, followed by cervical dislocation. Brains were rapidly removed, cortices dissected and homogenized in 10 volumes of ice-cold isolation buffer (0.32M sucrose, 1 mM EDTA, 10 mM Tris-HCl buffer, pH 7.4, 10 mM glucose). The homogenate was centrifuged at 3100 rpm for 3 min at 4° C., and the supernatant collected, and the pellet was re-homogenized in half the volume of isolation buffer and centrifuged again. Synaptosomal were then isolated as described (see reference 30, below) modified as follows, the pooled supernatants were mixed with PERCOLL™ (Sigma, St. Louis, Mo.) to a final concentration of 15%, and then layered onto a step gradient of 23% and 40% PERCOLL™, and centrifuged at 16,000 rpm for 5 minutes at 4° C. The uppermost band was extracted, rinsed in isolation buffer, centrifuged and resuspended in synaptosomal buffer (120 mM NaCl, 4.7 mM KCl, 2.2 mM CaCl2, 1.2 mM MgCl2, 25 mM HEPES, 1.2 mM MgSO4, 1.2 mM KH2PO4, 10 mM glucose).
Oxygen consumption studies (oximetry). O2 consumption studies on synaptosomes are carried out. […] Studies were carried out to optimize the concentration of synaptosomal protein required, and to confirm stability and viability of synaptosomes and their mitochondria for up to 6 h.

[2] = test system: PV-interneurons in mouse prefrontal cortex; test: two-day ketamine treatment of mice: oxidized DHE, parvalbumin and GAD67 in prefrontal cortex; type: in vivo
Protocol: Animals and treatments. […] Male C57BL6 mice were obtained from Jackson Labs, Bar Harbor, Me., at 8-12 weeks and housed in our facility until 15 weeks when they were used for experiments. Ketamine (30 mg/kg) was applied intraperitoneally (IP) on two consecutive days at around 4 pm. DHE was applied 30 min after the last ketamine injection as described (19, 20). Briefly, two serial i.p. injections of freshly prepared dihydroethidium (27 mg/kg) are given at 30 minute intervals. Eighteen hours later, mice are anesthetized with inhaled halothane, and perfused intracardially with cold saline followed by 4% paraformaldehyde in PBS. The Nox inhibitor, apocynin (5 mg/kg/day) was given in the drinking water for a total of seven days, with an assumed intake of […] H2O/mouse/day, and ketamine was applied on the last two days. […] All animal studies were approved by the Animal Care Program at the University of California, San Diego, and are in accordance the PHS Guide for the Care and Use of Laboratory Animals, USDA Regulations, and the AVMA Panel on Euthanasia.
Immunohistochemistry: Brains were frontally sliced in a vibratome into 50 μm coronal sections encompassing the prefrontal cortex region (from Bregma 2.0 to 1.3). Sequential slices were processed for floating-section double immunohistochemistry for the detection of parvalbumin and GAD67. Antigen retrieval was performed by incubation of the slices in 1% sodium borohydride for 15 min as described (see reference 34, below), followed by washing in PBS and incubation in 10% normal goat serum in PBS for 16 h at 4° C. Primary antibodies (Calbindin: 1:5000: Calretinin: 1:2000; Parvalbumin: 1:3000, all rabbit polyclonals from Swant, Bellinzona, Switzerland. GAD67: 1:1000, from Chemicon-Millipore, Temecula, Calif.) were diluted in 2% normal goat serum in PBS and applied to the slices for 18 h at 4° C., after which slices were washed in PBS and incubated in a 1:1000 dilution of ALEXAFLUOR™ (Molecular Probes, Invitrogen, Carlsbad, Calif.) conjugated goat anti-rabbit (568) or goat anti-mouse (488) antibodies for 1 hr at room temperature (rt). Slices were washed in PBS and mounted sequentially in glass slides using […]™ (Vector Laboratories, Burlingame, Calif.), covered with a coverslip and allowed to dry for at least 24 h before confocal imaging.
Six slices were analyzed per animal.
Analysis of superoxide and/or hydrogen peroxide production by confocal imaging of in vivo dihydroethidium (DHE) oxidation. Mice will be injected intraperitoneally (i.p.) with dihydroethidium.

[3] = test system: PV-interneurons in mouse prefrontal cortex; test: as above; type: in vivo; conditions: 24 h following a single ketamine exposure
[4] = test system: synaptosomal mitochondria; test: respiration of synaptosomal mitochondria (oximetry); conditions: after in vivo ketamine 30 mg/kg, two days
primary cultures = conditions: ketamine 0.5 μM, 1 h and 3 h
IL-6 mRNA = test: cytokine mRNA by RT-PCR in ketamine-treated primary neuronal cultures; conditions: ketamine 0.5 μM, up to 24 h
Nox2, Nox4, p22phox = test: Western blot of Nox proteins in brain membranes after in vivo ketamine; conditions: ketamine 30 mg/kg i.p., two consecutive days
Nox2 = test: Nox expression in primary neuronal cultures (immunocytochemistry, Western blot)
PV-interneurons = test: parvalbumin and GAD67 immunoreactivity in PV-interneurons in primary neuronal cultures
[5] = in vivo; cited from earlier work
NFkB = test: IL-6 induced superoxide production (DHE oxidation) in neuronal cultures with NFkB inhibitor; type: cell-based; conditions: assessed 4 hours later
IL-6 receptors = molecular target: T1, IL-6 receptors (Homo sapiens, UniProt P08887); conditions: Phase I and II clinical trials, cited from earlier work
T1 construct: host or cells: patients with rheumatoid arthritis / juvenile idiopathic arthritis
T1 sequence (P08887 20-468): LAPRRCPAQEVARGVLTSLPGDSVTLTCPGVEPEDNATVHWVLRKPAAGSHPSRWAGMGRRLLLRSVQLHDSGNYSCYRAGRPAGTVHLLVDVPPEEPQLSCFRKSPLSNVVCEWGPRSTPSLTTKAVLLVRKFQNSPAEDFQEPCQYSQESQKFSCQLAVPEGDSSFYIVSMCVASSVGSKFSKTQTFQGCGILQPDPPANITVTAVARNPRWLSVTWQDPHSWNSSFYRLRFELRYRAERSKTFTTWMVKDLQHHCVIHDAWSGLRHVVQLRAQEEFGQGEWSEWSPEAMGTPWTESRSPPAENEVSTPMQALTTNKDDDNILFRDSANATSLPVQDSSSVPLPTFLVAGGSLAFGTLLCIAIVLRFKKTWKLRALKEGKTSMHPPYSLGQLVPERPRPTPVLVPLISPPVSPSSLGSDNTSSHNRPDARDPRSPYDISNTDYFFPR

[6] = 2-day ketamine, saline 30.1±14.3
[7] = ketamine 30 mg/kg i.p., two consecutive days

## CNC1(c2ccccc2Cl)CCCCC1=O (centres unmarked) [ketamine]
[1]; ketamine 0.5 μM, 24 h
  oxidized DHE (neuronal superoxide and/or hydrogen peroxide production): significant increase; also recorded: pronounced increase
NADPH oxidase (Nox)
  Nox activity in synaptosomes: pronounced increase
[2]; [6]
  GAD67 in calbindin cells, mean intensity±SD: 44.2±14.5
  GAD67 in calretinin cells, mean intensity+SD: 44.2±14.5
[2]; 2-day ketamine, saline 133.6±35.6
  calretinin, mean intensity+SD: 139.4±28.7
[2]; 2-day ketamine, saline 215.6±32.1
  calbindin, mean intensity±SD: 231.6±25.6
[2]; [7]
  oxidized DHE in brain / PFC: widespread increase; also recorded: pronounced increase
  parvalbumin and GAD67 immunoreactivity in PV-interneurons of PFC: significant reduction; also recorded: pronounced decrease
[3]
  effects on PV-interneurons in the prefrontal region: not present
[4]
  metabolic activities of synaptosomal mitochondria: not affected
Primary cultures
  superoxide signals (EPR, DIPPMPO): rapid increase
IL-6 mRNA
  levels of other pro-inflammatory cytokines (IL-1, TNF mRNA): without affecting
Nox2, Nox4, p22phox
  expression of Nox2 and p22phox in membrane preparations of cortical tissue: significant increase
Nox2; after ketamine treatment, cultures
  Nox4 expression: did not see changes
Nox2; ketamine 0.5 μM, 24 h, control 100+/−8%
  Nox2 immunoreactivity, fluorescence quantification: 170+/−15%
PV-interneurons; ketamine 0.5 μM, 24 h
  parvalbumin immunoreactivity: reduction

## NCc1cc(=O)[nH]o1 [muscimol]
[1]; co-exposure with ketamine 0.5 μM 24 h, muscimol 10 μM, C3 20 μM, apocynin 0.5 mM
  effect on ketamine-mediated increase in oxidized DHE: prevented; also recorded: complete block
PV-interneurons; co-exposure with ketamine 24 h, muscimol 10 μM, C3, apocynin 0.5 mM
  effect on ketamine-mediated loss of parvalbumin and GAD67 immunoreactivity in PV-interneurons: prevented; also recorded: preservation

## CNTO-328: human-mouse chimeric monoclonal antibody (Mab) to IL-6 (Centocor)
[5]
  plasma half-life: roughly 17 days

## H2N-Ala-Ala-Val-Ala-Leu-Leu-Pro-Ala-Val-Leu-Leu-Ala-Leu-Leu-Ala-Pro-Val-Gln-Arg-Lys-Arg-Gn-Lvs-Leu-Met-Pro-OH (H-AAVALLPAVLLALLAPVQRKRQKLMP-OH) [SN50]
NFkB
  effect on IL-6 induced superoxide production (DHE oxidation): blocks

## Tocilizumab: therapeutic humanized monoclonal antibody, specific antagonist for IL-6 receptors
IL-6 receptors; 2, 4, 5, 8 or 10 mg/kg, dose-dependent
  rheumatoid arthritis disease activity: reduced rheumatoid arthritis disease activity significantly
IL-6 receptors
  safety and tolerability: generally safe and well tolerated
[5]
  plasma half-life: long plasma half-life

From US9944583B2, “Methods for ameliorating and preventing central nervous system inflammation” (THE REGENTS OF THE UNIVERSITY OF CALIFORNIA, priority 2007, dated 2018)
